Results taken from patent publication EP4567115A1, “METHOD FOR PRODUCING RIBOSOME IN CELL-FREE PROTEIN SYNTHESIS SYSTEM” (priority 2022, dated 2024).

Assays:
Format in all cases: biochemical, E. coli
[1] = target: T1, wild-type 30S r-protein S12 (Escherichia coli, UniProt P0A7S3); assay: Bulk assay of in vitro produced 70S ribosome with wild-type S12 (pT7_oSD_or1_LacZ reporter), with streptomycin; conditions: wild-type 30S r-protein S12 gene; in the presence of spectinomycin and streptomycin
T1 construct: made in house; host or cells: cell-free transcription/translation in E. coli S150 cell extract (first reaction)
Protocol: (§1) For the second reaction, a second reaction solution was prepared which contained 3.6 µL of the cell extract, an antibiotic (200 µM spectinomycin, 20 µg/mL streptomycin, 3 mM clindamycin, or 240 nM thiostrepton), 3 nM of the reporter plasmid, and 1 mM of IPTG. Note that when the reporter plasmid expressed LacZ, the second reaction solution included 66 µM of 5-chloromethylfluorescein di-β-D-galactopyranoside (CMFDG; Invitrogen, Waltham, MA, USA) as a substrate for LacZ. In the second reaction, 15 µL of the second reaction solution was added to and mixed with 15 µL of the solution after the first reaction, and the signal of the reporter was then measured. […] The signal of the reporter was quantified at λex = 485 nm and λem = 535 nm by using a fluorescence microplate reader, Fluoroskan Ascent FL™ (Thermo Fisher Scientific) or Infinite® 200 PRO (TECAN, Mannedorf, Switzerland).
(§2) A gene encoding a K43T mutant of 30S r-protein S12, which mutant confers streptomycin resistance to ribosomes, was used to produce a 70S ribosome with streptomycin resistance. […] In the second reaction, the translational activity of the ribosomal SSU was then detected by a bulk assay using the pT7_oSD_or1_LacZ reporter in the presence of spectinomycin and in the presence or absence of streptomycin.

[2] = target: T2, K43T mutant of 30S r-protein S12 (Escherichia coli, UniProt P0A7S3, K43T); assay: Bulk assay of in vitro produced 70S ribosome with S12 K43T mutant (pT7_oSD_or1_LacZ reporter), with streptomycin; conditions: gene encoding K43T mutant of 30S r-protein S12; in the presence of spectinomycin and streptomycin
T2 construct: made in house; host or cells: cell-free transcription/translation in E. coli S150 cell extract (first reaction)
Protocol: as §1, §2

[3] = target: T3, 30S r-protein S12 K43T mutant (Escherichia coli, UniProt P0A7S3, K43T); assay: Bulk assay of in vitro produced SSU with S12 K43T mutant, spectinomycin and streptomycin in the second reaction; conditions: SSU only; gene encoding 30S r-protein S12 K43T mutant; in the presence of spectinomycin and streptomycin
T3 construct: made in house; host or cells: cell-free transcription/translation in E. coli S150 cell extract (first reaction)
Protocol: as §1
The in vitro production of ribosomal SSU was specifically performed by the following procedure. […] The fluorescence of the reaction solution was measured by a bulk assay or a femtoliter droplet assay. In the bulk assay, the reporter signal was kinetically measured at λex = 485 nm and λem = 535 nm by using a Fluoroskan Ascent FL™ (Thermo Fisher Scientific) or Infinite® 200 PRO (TECAN) at 37°C for 120 minutes, 720 minutes, or 900 minutes. […]

[4] = test system: native ribosome (Escherichia coli); assay: Bulk assay of native ribosome translational activity (LacZ reporter) with or without thiostrepton in the second reaction; conditions: in the presence of thiostrepton (120 nM, Fig. 5a); pT7PCONS_EpsA20_wtSD_lacZ reporter
Protocol: as §1
(§3) The in vitro production of ribosomal LSU was specifically performed by the following procedure. […] The fluorescence of the reaction solution was measured by a bulk assay in the same manner as in the case of the SSU.
(§4) Thiostrepton is known to inactivate an LSU by binding to 50S r-protein L11. […] In the second reaction, the translational activity of the ribosomal LSU was then detected by a bulk assay using the pT7PCONS_EpsA20_wtSD_lacZ reporter in the presence or absence of thiostrepton.

[5] = test system: LSU formed using 32 different LSU r-protein genes excluding r-protein L11 gene; assay: Bulk assay of in vitro formed LSU lacking r-protein L11 (LacZ reporter) in the presence of thiostrepton; conditions: in the presence of thiostrepton (120 nM, Fig. 5b); LSU formed without r-protein L11 gene
Protocol: as §1, §3, §4

endogenous ribosome = assay: Spectinomycin concentration optimisation, sonicated S12 cell extract with pT7_wtSD_LacZ reporter; conditions: spectinomycin concentration 5 mM
Protocol: Next, the optimal concentration of spectinomycin was examined. BL21 Star™ (DE3) lacZ::frt was transformed with a plasmid containing rRNA with or without C1192U spectinomycin resistance (SpcR). These bacterial strains were cultured in the presence of 0.1 mM IPTG for 3 hours, and the sonicated S12 cell extract and pT7_wtSD_LacZ reporter were mixed at various spectinomycin concentrations. […] Therefore, in the following experiments, the spectinomycin concentration was set to 5 mM unless otherwise specified.

native ribosomes = assay: Femtoliter droplet assay, control cell extract with pT7_oSD_or1_LacZ reporter; conditions: 100 µM spectinomycin, 5 nM pT7_oSD_or1_LacZ reporter
Protocol: A mixed oil consisting of light mineral oil (Sigma-Aldrich Corporation, St. Louis, MO, USA), 4.5% sorbitan monooleate (Nacalai Tesque), and 0.5% Triton® X-100 (Nacalai Tesque) was provided. The solution after the second reaction and the mixed oil were mixed and a microtube (Maruemu Corporation, Osaka, Japan) was tapped 20 times to obtain an emulsion. The resulting emulsion was incubated at 37°C for 2 hours to 17 hours, and bright field and fluorescence images of the droplets were acquired over time using a confocal fluorescence microscope LSM700 (Carl Zeiss AG, Oberkochen, Germany). The 488 nm laser was focused using an oil-immersion objective lens (Plan-Apochromat 40x/1.4 Oil DIC M27, Carl Zeiss AG) and oil-immersion oil (ImmersolTM518F, Carl Zeiss AG).
Next, a control experiment was performed using a control cell extract containing only native ribosomes and a pT7_oSD_or1_LacZ reporter. The control cell extract was mixed with 5 nM pT7_oSD_or1_LacZ reporter. In this condition, no fluorescence from native ribosomes was detected in the bulk assay (Fig. 10d).

**Q.** For `[H]/N=C(/N)N[C@H]1[C@H](O)[C@@H](O)[C@H](O[C@@H]2O[C@@H](C)[C@](O)(C=O)[C@H]2O[C@@H]2O[C@@H](CO)[C@H](O)[C@@H](O)[C@@H]2NC)[C@@H](N/C(N)=N\[H])[C@@H]1O` [streptomycin], which “reporter signal (translational activity of the ribosomal SSU)” value [1] is on record?
**A.** The value was “no signal was detected”.

**Q.** What about the “reporter signal (translational activity of the ribosomal SSU)” value [2] of the same molecule?
**A.** The value was “a signal was detected”.

**Q.** What about the reporter signal [3] of the same molecule?
**A.** Its reporter signal is “the reporter signal was not affected”.

**Q.** For `C=C(NC(=O)C(=C)NC(=O)c1csc(C2=N[C@@H]3c4csc(n4)[C@H]4NC(=O)c5csc(n5)[C@H]([C@](C)(O)[C@@H](C)O)NC(=O)[C@H]5CSC(=N5)/C(=C/C)NC(=O)[C@H]([C@@H](C)O)NC(=O)c5csc(n5)[C@]3(CC2)NC(=O)[C@H](C)NC(=O)C(=C)NC(=O)[C@H](C)NC(=O)[C@H]([C@@H](C)CC)N[C@@H]2C=Cc3c([C@H](C)O)cc(nc3[C@H]2O)C(=O)O[C@@H]4C)n1)C(N)=O` [thiostrepton], which “signal of LSU (activity of the native ribosome)” value [4] is on record?
**A.** The value was “the signal of LSU disappeared”.

**Q.** What about the LSU signal [5] of the same molecule?
**A.** The LSU signal was “An LSU signal was detected”.

**Q.** With `CN[C@@H]1[C@H](O)[C@H](NC)[C@H]2O[C@@]3(O)C(=O)C[C@@H](C)O[C@H]3O[C@@H]2[C@H]1O` [spectinomycin] as the molecule, how does the “activity of the endogenous ribosome” value (endogenous ribosome) read?
**A.** Its value is “strongly suppressed”.

**Q.** And the “fluorescence derived from native ribosomes” value (native ribosomes)?
**A.** The value was “fluorescence derived from native ribosomes can be removed”.
